The NIST ThermoML archive (doi:10.1016/j.fluid.2013.08.029)
± gives the expanded uncertainty stated by the source.

Test: xn = mol fraction of the nth substance listed
Details: 101 kPa, Liquid; for speed of sound: Sing-around technique in a fixed-path interferometer; for mass density: Vibrating tube method

CCCCCn1cc[n+](C)c1.F[B-](F)(F)F [1-methyl-3-pentyl-imidazolium tetrafluoroborate] + OCCO
Details | mass density [kg/m3] | speed of sound [m/s]
288.15 K, x1 = 0.0549 | 1127.51 ± 0.18 | 1659 ± 2.2
288.15 K, x1 = 0.1148 | 1135.95 ± 0.21 | 1639.3 ± 2.2
288.15 K, x1 = 0.2053 | 1145.61 ± 0.26 | 1617.1 ± 2.3
288.15 K, x1 = 0.3086 | 1153.94 ± 0.34 | 1599.3 ± 2.4
288.15 K, x1 = 0.4154 | 1160.64 ± 0.43 | 1587.3 ± 2.4
288.15 K, x1 = 0.5063 | 1165.13 ± 0.53 | 1580.3 ± 2.5
288.15 K, x1 = 0.6273 | 1170.27 ± 0.67 | 1573.1 ± 2.6
288.15 K, x1 = 0.7138 | 1173.4 ± 0.78 | 1569.8 ± 2.6
288.15 K, x1 = 0.7982 | 1176.33 ± 0.9 | 1567.9 ± 2.7
288.15 K, x1 = 0.8985 | 1179.69 ± 1.1 | 1565.9 ± 2.8
293.15 K, x1 = 0.0549 | 1123.89 ± 0.18 | 1646.9 ± 2.2
293.15 K, x1 = 0.1148 | 1132.23 ± 0.21 | 1627.2 ± 2.2
293.15 K, x1 = 0.2053 | 1141.81 ± 0.26 | 1604.6 ± 2.3
293.15 K, x1 = 0.3086 | 1150.12 ± 0.33 | 1586.9 ± 2.3
293.15 K, x1 = 0.4154 | 1156.84 ± 0.43 | 1575 ± 2.4
293.15 K, x1 = 0.5063 | 1161.54 ± 0.52 | 1567.7 ± 2.5
293.15 K, x1 = 0.6273 | 1166.54 ± 0.66 | 1560.8 ± 2.6
293.15 K, x1 = 0.7138 | 1169.75 ± 0.77 | 1558.1 ± 2.6
293.15 K, x1 = 0.7982 | 1172.71 ± 0.89 | 1556.8 ± 2.7
293.15 K, x1 = 0.8985 | 1176.11 ± 1.1 | 1555.3 ± 2.8
298.15 K, x1 = 0.0549 | 1120.27 ± 0.18 | 1634.8 ± 2.2
298.15 K, x1 = 0.1148 | 1128.52 ± 0.21 | 1615.1 ± 2.2
298.15 K, x1 = 0.2053 | 1138.01 ± 0.25 | 1592.4 ± 2.3
298.15 K, x1 = 0.3086 | 1146.31 ± 0.33 | 1574.7 ± 2.3
298.15 K, x1 = 0.4154 | 1153.05 ± 0.42 | 1562.7 ± 2.4
298.15 K, x1 = 0.5063 | 1157.88 ± 0.52 | 1555.5 ± 2.5
298.15 K, x1 = 0.6273 | 1162.86 ± 0.66 | 1548.3 ± 2.6
298.15 K, x1 = 0.7138 | 1166.1 ± 0.77 | 1544.8 ± 2.6
298.15 K, x1 = 0.7982 | 1169.1 ± 0.89 | 1542.3 ± 2.7
298.15 K, x1 = 0.8985 | 1172.64 ± 1 | 1540.3 ± 2.8
303.15 K, x1 = 0.0549 | 1116.63 ± 0.18 | 1622.8 ± 2.2
303.15 K, x1 = 0.1148 | 1124.81 ± 0.2 | 1602.9 ± 2.2
303.15 K, x1 = 0.2053 | 1134.22 ± 0.25 | 1580.2 ± 2.3
303.15 K, x1 = 0.3086 | 1142.5 ± 0.33 | 1562.5 ± 2.3
303.15 K, x1 = 0.4154 | 1149.27 ± 0.42 | 1550.6 ± 2.4
303.15 K, x1 = 0.5063 | 1154.21 ± 0.51 | 1543.2 ± 2.5
303.15 K, x1 = 0.6273 | 1159.19 ± 0.65 | 1536.5 ± 2.6
303.15 K, x1 = 0.7138 | 1162.48 ± 0.76 | 1532.8 ± 2.6
303.15 K, x1 = 0.7982 | 1165.5 ± 0.88 | 1530.3 ± 2.7
303.15 K, x1 = 0.8985 | 1169.12 ± 1 | 1528.5 ± 2.8
308.15 K, x1 = 0.0549 | 1113 ± 0.18 | 1609.9 ± 2.2
308.15 K, x1 = 0.1148 | 1121.09 ± 0.2 | 1590.9 ± 2.2
308.15 K, x1 = 0.2053 | 1130.44 ± 0.25 | 1568.1 ± 2.3
308.15 K, x1 = 0.3086 | 1138.71 ± 0.33 | 1550.4 ± 2.3
308.15 K, x1 = 0.4154 | 1145.51 ± 0.42 | 1538.5 ± 2.4
308.15 K, x1 = 0.5063 | 1150.46 ± 0.51 | 1531.2 ± 2.5
308.15 K, x1 = 0.6273 | 1155.52 ± 0.65 | 1524.5 ± 2.6
308.15 K, x1 = 0.7138 | 1158.87 ± 0.76 | 1521 ± 2.6
308.15 K, x1 = 0.7982 | 1161.91 ± 0.87 | 1518.5 ± 2.7
308.15 K, x1 = 0.8985 | 1165.59 ± 1 | 1516.9 ± 2.8
313.15 K, x1 = 0.0549 | 1109.35 ± 0.18 | 1598.2 ± 2.2
313.15 K, x1 = 0.1148 | 1117.37 ± 0.2 | 1578.9 ± 2.2
313.15 K, x1 = 0.2053 | 1126.66 ± 0.25 | 1556.1 ± 2.3
313.15 K, x1 = 0.3086 | 1134.93 ± 0.32 | 1538.4 ± 2.3
313.15 K, x1 = 0.4154 | 1141.76 ± 0.41 | 1526.5 ± 2.4
313.15 K, x1 = 0.5063 | 1146.71 ± 0.5 | 1519.5 ± 2.5
313.15 K, x1 = 0.6273 | 1151.88 ± 0.64 | 1512.8 ± 2.6
313.15 K, x1 = 0.7138 | 1155.26 ± 0.75 | 1509.2 ± 2.6
313.15 K, x1 = 0.7982 | 1158.35 ± 0.87 | 1506.4 ± 2.7
313.15 K, x1 = 0.8985 | 1162.04 ± 1 | 1505.3 ± 2.8
318.15 K, x1 = 0.0549 | 1105.67 ± 0.18 | 1586.7 ± 2.2
318.15 K, x1 = 0.1148 | 1113.63 ± 0.2 | 1566.9 ± 2.2
318.15 K, x1 = 0.2053 | 1122.88 ± 0.25 | 1544.2 ± 2.3
318.15 K, x1 = 0.3086 | 1131.15 ± 0.32 | 1526.6 ± 2.3
318.15 K, x1 = 0.4154 | 1138.02 ± 0.41 | 1514.6 ± 2.4
318.15 K, x1 = 0.5063 | 1142.8 ± 0.5 | 1507.7 ± 2.5
318.15 K, x1 = 0.6273 | 1148.22 ± 0.64 | 1501.5 ± 2.6
318.15 K, x1 = 0.7138 | 1151.65 ± 0.74 | 1497.7 ± 2.6
318.15 K, x1 = 0.7982 | 1154.78 ± 0.86 | 1495.5 ± 2.7
318.15 K, x1 = 0.8985 | 1158.38 ± 1 | 1494 ± 2.8
